Assay results taken from US20040106658A1, “Heterocyclic fluoroalkenyl thioethers and the use thereof as pesticides(III)” (priority 2000, published 2004).
Where two headings read alike, the source gives them in different places.

How the values were obtained:
[1] = logP by HPLC (EEC Directive 79/831 Annex V.A8, gradient method); assay type: physicochemical; details: for chromatographic logP: pH 2.3; for logP (pH 2): HPLC, acetonitrile/0.1% aqueous phosphoric acid
[2] = system: Meloidogyne incognita; test: Meloidogyne test (gall formation on lettuce roots); assay type: in vivo; details: 20 ppm active compound, after 14 days
Method: To produce a suitable preparation of active compound, 1 part by weight of active compound is mixed with the stated amounts of solvent and emulsifier, and the concentrate is diluted with water to the desired concentration.
Containers are filled with sand, solution of active compound, Meloidogyne incognita egg/larvae suspension and lettuce seeds. The lettuce seeds germinate and the plants develop. On the roots, galls are formed.
After the desired period of time, the nematicidal action is determined in % using gall formation as a measure. 100% means that no galls were found; 0% means that the number of galls on the treated plants corresponds to that of the untreated control.

[3] = system: Boophilus microplus (SP-resistant Parkhurst strain); test: Test with Boophilus microplus resistant (SP-resistant Parkhurst strain), injection; assay type: in vivo; details: injected, checked after 7 days; for activity (no oviposition of fertile eggs): 0.16 μg active compound per animal; for kill (activity: no oviposition of fertile eggs): 0.8 μg active compound per animal
Method: Test With Boophilus Microplus Resistant (SP-Resistant Parkhurst Strain)
20 mg of active compound are dissolved in 1 ml of dimethyl sulphoxide, more dilute concentrations are prepared by dilution in the same solvent.
The test is carried out in 5 replications. 1 μl of the solutions is injected into the abdomen, and the animals are transferred into dishes and kept in a climatized room. After 7 days, the activity is checked by examination for oviposition of fertile eggs. Eggs whose fertility is not visible from the outside are stored in glass tubes in a controlled-environment cabinet until the larvae have hatched. An activity of 100% means that no tick has produced any fertile eggs.

[4] = system: greenhouse red spider mite (Tetranychus urticae); test: Tetranychus test (OP-resistant/dip treatment); assay type: in vivo; details: active compound concentration 0.1%, after 7 days
Method: Tetranychus Test (OP-Resistant/Dip Treatment)
(§1) To produce a suitable preparation of active compound, 1 part by weight of active compound is mixed with the stated amounts of solvent and emulsifier, and the concentrate is diluted with emulsifier-containing water to the desired concentration.
Bean plants (Phaseolus vulgaris) which are heavily infested by all stages of the greenhouse red spider mite (Tetranychus urticae) are dipped into a preparation of active compound of the desired concentration.
After the desired period of time, the effect in % is determined. 100% means that all spider mites have been killed; 0% means that none of the spider mites have been killed.

[5] = system: Ctenocephalides felis, strain "Georgi"; test: Test with cat fleas/oral uptake; assay type: in vivo; details: 100 ppm in citrated cattle blood, after 28 h
Method: Test With Cat Fleas/Oral Uptake
To produce a suitable formulation, a suitable solution of active compound is prepared from 20 mg of active compound and 1 ml of DMSO. 15 μl of this formulation are added to 3 ml of citrated cattle blood and stirred.
10 unfed adult fleas (Ctenocephalides felis, strain “Georgi”) are placed into a chamber (Ø3.2 cm) whose top and bottom are closed with gauze. A metal cylinder whose underside is covered with parafilm is placed onto the chamber. The cylinder contains 3 ml of blood/active compound formulation which can be taken up by the fleas through the parafilm membrane. Whereas the blood is warmed to 37° C., the temperature in the area of the flea chambers is adjusted to 25° C. Controls are mixed with the same volume of DMSO, without addition of a compound. The determinations are carried out in triplicate.
After 28 h, the mortality in % (=dead fleas) is determined.
Compounds which effect an at least 25% kill of the fleas within 28 h are judged to be effective.

[6] = system: larvae of the mustard beetle (Phaedon cochleariae); test: Phaedon larvae test (cabbage leaf dip); assay type: in vivo; details: active compound concentration 0.1%, after 7 days
Method: as §1
After the desired period of time, the kill in % is determined. 100% means that all beetle larvae have been killed; 0% means that none of the beetle larvae have been killed.

[7] = system: peach aphid (Myzus persicae); test: Myzus test (cabbage leaf dip); assay type: in vivo; details: active compound concentration 0.1%, after 6 days
Method: as §1
Cabbage leaves (Brassica oleracea) which are heavily infested by the peach aphid (Myzus persicae) are treated by being dipped into the preparation of active compound of the desired concentration.
After the desired period of time, the kill in % is determined. 100% means that all aphids have been killed; 0% means that none of the aphids have been killed.

[8] = system: Lucilia cuprina larvae; test: Blowfly larvae test (development-inhibitory action); assay type: in vivo; details: 100 ppm active compound
Method: Blowfly Larvae Test (Development-Inhibitory Action)
20 mg of active compound are dissolved in 1 ml of dimethyl sulphoxide, more dilute concentrations are prepared by dilution with distilled water.
About 20 Lucilia cuprina larvae are introduced into a test tube which contains about 1 cm^3 of horse meat and 0.5 ml of the preparation of active compound to be tested. After 24 hours and 48 hours, the efficacy of the preparation of active compound is determined. The test tubes are transferred into a beaker whose bottom is covered with sand. After a further 2 days, the test tubes are removed and the pupae are counted.
The efficacy of the preparation of active compound is assessed by the number of flies that have hatched after 1.5 times the period of development of an untreated control. 100% means that no flies have hatched; 0% means that all flies have hatched normally.

SMILES | nematicidal action (activity, gall formation as a measure) [2] [%] | activity (no oviposition of fertile eggs) [3] [%] | logP (pH 2) [1] | other results
FC(F)=C(F)CCCCSc1nc(-c2ccccc2)cs1 [Example 1, 4-phenyl-2-(6,6,5-trifluorohex-5-enylthio)-1,3-thiazole] | 100 | 100 | – | chromatographic logP ([1]; read-out: logP (pH 2.3)): 5.21
[O-][S+](CCCCC(F)=C(F)F)c1nc(-c2ccccc2)cs1 (stereo not shown) [Example 2, 4-phenyl-2-(6,6,5-trifluorohex-5-enylsulphinyl)-1,3-thiazole] | – | 100 | – | chromatographic logP ([1]; read-out: logP (pH 2.3)): 3.47
O=S(=O)(CCCCC(F)=C(F)F)c1nc(-c2ccccc2)cs1 [Example 3, 4-phenyl-2-(6,6,5-trifluorohex-5-enylsulphonyl)-1,3-thiazole] | – | 100 | – | chromatographic logP [1]: 3.67
FC(F)=CCCCCSc1nc(-c2ccccc2)cs1 [Example 4] | 100 | 100 | 5.38 | kill [4]: 98%; kill (activity: no oviposition of fertile eggs) [3]: 100%; kill (mortality) [5]: 100%
FC(F)=C(F)CCCCSc1nc(Cl)c(Cl)s1 [Example 5] | 98 | – | 5.33 | kill [6]: 100%; kill (activity: no oviposition of fertile eggs) [3]: 100%
FC(F)=CCCCCSc1nc(Cl)c(Cl)s1 [Example 6] | 100 | – | 5.53 | kill [7]: 95%; kill [6]: 100%; kill [4]: 100%
FC(F)=C(F)CCCCSc1nc(-c2ccccc2)c(-c2ccccc2)o1 [Example 7] | 100 | – | 5.96 | –
FC(F)=CCCCCSc1nc(-c2ccccc2)c(-c2ccccc2)o1 [Example 8] | 100 | – | 6.14 | kill [6]: 100%; kill [4]: 98%; kill (activity: no oviposition of fertile eggs) [3]: 100%; kill (efficacy: flies not hatched) [8]: 100%
Cc1csc(SCCCCC(F)=C(F)F)n1 [Example 9] | – | – | 3.85 | –
FC(F)=C(F)CCCCSc1nc(Cl)c(C(F)(F)F)s1 [Example 10] | – | – | 5.40 | –
Cc1nc(SCCCCC(F)=C(F)F)sc1C [Example 11] | – | – | 4.20 | –
FC(F)=CCCCCSc1nc(Cl)c(C(F)(F)F)s1 [Example 12] | – | – | 5.62 | –
